In paper PMC7238232, “Acamprosate Is a Substrate of the Human Organic Anion Transporter (OAT) 1 without OAT3 Inhibitory Properties: Implications for Renal Acamprosate Secretion and Drug–Drug Interactions” (Pharmaceutics, 2020):
Several values for one entry are separate records, joined by “and”; a condition that tells them apart may be missing. Equal values may be shown once. Read-outs that look alike come from different tables or passages of the source. Values belong to the molecule of their own block, whether it stands above or below them.

Assays:
human OAT1 = details: cited from earlier work; for Km: read-out: Km of other OAT1 substrates
OAT3 = biological target: T1, OAT3 (Homo sapiens, UniProt Q8TCC7); assay: [3H]-E3S uptake and its inhibition in HEK293-Flp-In OAT3 cells; type: cell-based; details: 0.02 µM [3H]-E3S; 200 µM E3S, 300 µM probenecid, 1000 or 10,000 µM acamprosate; Lab. 2
T1 sequence (Q8TCC7 1-542): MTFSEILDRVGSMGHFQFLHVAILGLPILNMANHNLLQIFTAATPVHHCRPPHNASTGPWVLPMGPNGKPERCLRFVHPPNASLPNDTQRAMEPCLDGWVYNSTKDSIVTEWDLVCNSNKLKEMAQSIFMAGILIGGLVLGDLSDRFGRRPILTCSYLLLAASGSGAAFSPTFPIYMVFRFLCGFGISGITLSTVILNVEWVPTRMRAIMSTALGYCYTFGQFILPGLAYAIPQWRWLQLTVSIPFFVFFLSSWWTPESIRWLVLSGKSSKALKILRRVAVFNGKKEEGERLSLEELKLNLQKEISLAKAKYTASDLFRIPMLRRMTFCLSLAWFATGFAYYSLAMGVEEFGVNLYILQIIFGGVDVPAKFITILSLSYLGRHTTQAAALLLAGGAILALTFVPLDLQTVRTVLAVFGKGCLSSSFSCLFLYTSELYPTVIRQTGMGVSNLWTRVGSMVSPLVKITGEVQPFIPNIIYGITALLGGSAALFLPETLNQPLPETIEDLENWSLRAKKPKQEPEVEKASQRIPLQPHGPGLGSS
Protocol: All uptake experiments were performed on 24- or 96-well plates. Before the experiment initiation, the cells were incubated with either 500 or 200 µL∙well^−1 prewarmed buffer for 10 min at 37 °C in a microplate incubator (VWR International AB, Stockholm, Sweden), without shaking. […] The experiment was stopped by adding 200 µL∙well^−1 of ice-cold buffer and subsequent rinse three times with the same amount of buffer. In Lab. 1 the sample analysis of the OAT1/OAT3/mock studies consisted in removing the rinsing buffer and lysing the cells with 70 µL 1M NaOH, following by incubation for 60 min at 37 °C and 100 rpm. A total of 50 µL of cell lysate from each well was transferred to 96-well Luma plates bottom coated with dry scintillant. Then, 2∙20 µL of each donor and three 50 µL blank samples were applied on the same plate. The dry plates were covered with transparent seals and analyzed using a TopCount NXT Microplate Scintillation and Luminescence Counter (Perkin Elmer, Waltham, MA, USA). The remaining 20 µL cell lysate was neutralized with 20 µL 1M HCl∙well^−1, samples were mixed thoroughly and the total protein content in all the wells was measured using a BCA protein assay kit, microplate method, and a Tecan Safire II fluorometer (Tecan Austria GmbH, Grödig, Austria). For the experiments in Lab. 2, the cells were lysed by adding 200 µL 0.1% Triton X-100 and incubated for 5 min at 37 °C and 100 rpm. […] The total protein content was measured by using a BCA protein assay kit and a FLUOStar Omega fluorescence microplate reader (BMG Labtech, Ortenberg, Germany). The protein assay for the OAT3 and mock cell lines was performed in four independent wells of each cell line, seeded and treated in the same manner as the cells used in the uptake assay. For all the OAT1, OAT3, and mock isotope uptake studies, the radiolabelled tracer accumulation (pmol) in each well was calculated by first determining the activity of the isotope (DPM∙pmol^−1) from the radioactivity (DPM) of the donor sample divided by the theoretical isotope concentration (pmol), then dividing the total radioactivity in the well (DPM) to the specific activity of the isotope (DPM∙pmol^−1).
A range of preincubation solutions was prepared at the same concentrations of acamprosate applied in the inhibition assays. Acamprosate was dissolved in HBSS buffered with 10 mM HEPES and the pH was adjusted to 7.40 ± 0.01. The preincubation solutions were prewarmed to 37 °C and applied to the corresponding cells after removing the cell growth medium. The preincubation was done for 3 h, at 37 °C, without shaking. After the preincubation, the solutions were removed, and the inhibition experiment was performed as described in the Section 2.6.
The obtained intracellular amounts (pmol) were normalized to the assay time (min) and cell surface area (cm^2) or protein amount (mg protein) to obtain a term hereafter referred to as uptake rate. […] Assuming competitive interaction, equilibrium dissociation constants, Ki, were calculated from the IC50 value for each substrate/inhibitor pair, at substrate Km, using the Cheng–Prusoff equation [24].

[1] = probenecid, oral, cited from earlier work
OAT = system: OAT; parameters: method as in PMID 23085876; details: OAT mediated DDI by probenecid, compared to control; cited from earlier work
[2] = Clinical pharmacokinetics in humans (literature); details: probenecid, oral, calculated from Cmax and fu
HEK293-Flp-In mock cells [3] = assay: Control uptake studies in HEK293-Flp-In mock cells; details: for effect on uptake of [3H]-E3S in mock cells: 0.02 µM [3H]-E3S, 200 µM E3S, 300 µM or 0.2–1022 µM probenecid, 10,000 µM acamprosate, Lab. 2; for effect on uptake of [14C]-PAH in mock cells: 9.5 µM [14C]-PAH, 200 µM PAH, 300 µM or 0.02–1022 µM probenecid, acamprosate
Protocol: All uptake experiments were performed on 24- or 96-well plates. Before the experiment initiation, the cells were incubated with either 500 or 200 µL∙well^−1 prewarmed buffer for 10 min at 37 °C in a microplate incubator (VWR International AB, Stockholm, Sweden), without shaking. […] The experiment was stopped by adding 200 µL∙well^−1 of ice-cold buffer and subsequent rinse three times with the same amount of buffer. […] A total of 50 µL of cell lysate from each well was transferred to 96-well Luma plates bottom coated with dry scintillant. Then, 2∙20 µL of each donor and three 50 µL blank samples were applied on the same plate. The dry plates were covered with transparent seals and analyzed using a TopCount NXT Microplate Scintillation and Luminescence Counter (Perkin Elmer, Waltham, MA, USA). The remaining 20 µL cell lysate was neutralized with 20 µL 1M HCl∙well^−1, samples were mixed thoroughly and the total protein content in all the wells was measured using a BCA protein assay kit, microplate method, and a Tecan Safire II fluorometer (Tecan Austria GmbH, Grödig, Austria). […] The total protein content was measured by using a BCA protein assay kit and a FLUOStar Omega fluorescence microplate reader (BMG Labtech, Ortenberg, Germany). The protein assay for the OAT3 and mock cell lines was performed in four independent wells of each cell line, seeded and treated in the same manner as the cells used in the uptake assay. For all the OAT1, OAT3, and mock isotope uptake studies, the radiolabelled tracer accumulation (pmol) in each well was calculated by first determining the activity of the isotope (DPM∙pmol^−1) from the radioactivity (DPM) of the donor sample divided by the theoretical isotope concentration (pmol), then dividing the total radioactivity in the well (DPM) to the specific activity of the isotope (DPM∙pmol^−1).

HEK293-Flp-In mock cells [4] = assay: CellTiter-Glo cell viability assay, mock cells
HEK293-Flp-In OAT1 cells = assay: CellTiter-Glo cell viability assay, OAT1 transfected cells
HEK293-Flp-In OAT3 cells = assay: CellTiter-Glo cell viability assay, OAT3 transfected cells
human kidney slices = system: human kidney slices; parameters: method as in PMID 17255469; details: read-out: Km of PAH; cited from earlier work
[5] = substrate: CC(=O)NCCCS(=O)(=O)O; assay: Acamprosate intracellular uptake and inhibition of uptake in HEK293-Flp-In OAT1 cells (LC/MS-MS); type: cell-based, human; details: other: HEK293-Flp-In OAT1 cells, 10 min, pH 7.4, Lab. 1
[6] = 3 h, 1000 µM p-aminohippuric acid, 200 µM estrone-3-sulfate (Figure 8A)

Molecule: Nc1nc2c(ncn2COCCO)c(=O)[nH]1 [acyclovir]
Km (human OAT1): 342 µM

Molecule: Nc1nc(O)c2ncn(COC(CO)CO)c2n1 [ganciclovir]
Km (human OAT1): 896 µM

effect on uptake of [3H]-E3S in OAT3 expressing cells (OAT3): significantly decreased
Cmax,u ([2]; 500 mg): 8.66 ± 2.09 µM
Cmax,u ([2]; 1000 mg): 26.83 ± 10.37 µM
Cmax,u ([2]; 2000 mg): 88.53 ± 28.24 µM
Molecule: CCCN(CCC)S(=O)(=O)c1ccc(C(=O)O)cc1 [probenecid]
Cmax ([1]; 500 mg): 124 ± 30 µM
fu, fraction unbound in plasma ([1]; 500 mg): 0.07 [53]
Cmax ([1]; 1000 mg): 244 ± 94 µM
fu, fraction unbound in plasma ([1]; 1000 mg): 0.11 [53]
Cmax ([1]; 2000 mg): 521 ± 166 µM
fu, fraction unbound in plasma ([1]; 2000 mg): 0.17 [53]
change in AUC of other inhibited drugs (OAT): 1.1–2.4 fold
change in CLR of other inhibited drugs (OAT): 0.3–0.7 fold
effect on uptake of [3H]-E3S in mock cells (HEK293-Flp-In mock cells [3]): no inhibition
effect on uptake of [3H]-E3S in mock cells (HEK293-Flp-In mock cells [3]; listed as Probenecid): no inhibitory effect
effect on uptake of [14C]-PAH in mock cells (HEK293-Flp-In mock cells [3]; Lab. 1): no effect
effect on uptake of [14C]-PAH in mock cells (HEK293-Flp-In mock cells [3]; Lab. 1, listed as Probenecid): no inhibitory effect
effect on acamprosate uptake in mock cells (HEK293-Flp-In mock cells [3]; 200 µM acamprosate, 0.02–1022 µM probenecid, Lab. 1): no inhibitory effect

Molecule: CN(Cc1cnc2nc(N)nc(N)c2n1)c1ccc(C(=O)N[C@@H](CCC(=O)O)C(=O)O)cc1 [methotrexate]
Km (human OAT1): 554 to 724 µM

Molecule: CCCCCCCCCCCCOS(=O)(=O)[O-].[Na+] [SDS, sodium dodecyl sulfate]
decrease in cell viability (HEK293-Flp-In mock cells [4]; 0.5% SDS, 3 h incubation): more than 95%
decrease in cell viability (HEK293-Flp-In OAT1 cells; 0.5% SDS, 3 h incubation): approximately 50%
decrease in cell viability (HEK293-Flp-In OAT3 cells; 0.5% SDS, 3 h incubation): more than 95%

Molecule: Nc1ccc(C(=O)NCC(=O)O)cc1 [p-aminohippuric acid]
Km (human kidney slices): ~39 µM
effect on cell viability (HEK293-Flp-In mock cells [4]; [6]): did not decrease cell viability
effect on uptake of [14C]-PAH in mock cells (HEK293-Flp-In mock cells [3]; Lab. 1): no effect
saturability of dose-dependent substrate uptake in mock cells (HEK293-Flp-In mock cells [3]; same substrate concentrations as in transfected cells, acamprosate 0.33–3300 µM): not saturable
effect on cell viability (HEK293-Flp-In OAT1 cells; 3 h, 1000 µM p-aminohippuric acid, 200 µM estrone-3-sulfate (Figure 8B)): did not decrease cell viability
effect on cell viability (HEK293-Flp-In OAT3 cells; [6]): did not decrease cell viability

Molecule: CC(=O)Nc1ccc(O)cc1 [acetaminophen]
IC50 (human OAT1; read-out: IC50 of other drug substances inhibiting OAT1): 639 µM

Molecule: O=S(=O)(O)CCSSCCS(=O)(=O)O [dimesna]
Km (human OAT1): 636 µM

B1: OAT1 (Homo sapiens) (protein)
chain: MAFNDLLQQVGGVGRFQQIQVTLVVLPLLLMASHNTLQNFTAAIPTHHCRPPADANLSKNGGLEVWLPRDRQGQPESCLRFTSPQWGLPFLNGTEANGTGATEPCTDGWIYDNSTFPSTIVTEWDLVCSHRALRQLAQSLYMVGVLLGAMVFGYLADRLGRRKVLILNYLQTAVSGTCAAFAPNFPIYCAFRLLSGMALAGISLNCMTLNVEWMPIHTRACVGTLIGYVYSLGQFLLAGVAYAVPHWRHLQLLVSAPFFAFFIYSWFFIESARWHSSSGRLDLTLRALQRVARINGKREEGAKLSMEVLRASLQKELTMGKGQASAMELLRCPTLRHLFLCLSMLWFATSFAYYGLVMDLQGFGVSIYLIQVIFGAVDLPAKLVGFLVINSLGRRPAQMAALLLAGICILLNGVIPQDQSIVRTSLAVLGKGCLAASFNCIFLYTGELYPTMIRQTGMGMGSTMARVGSIVSPLVSMTAELYPSMPLFIYGAVPVAASAVTVLLPETLGQPLPDTVQDLESRWAPTQKEAGIYPRKGKQTRQQQEHQKYMVPLQASAQEKNGL
notes: expressed in transfected cells; host or cells: HEK293-Flp-In
Km [5]: 700 µM and 698 ± 192 µM
